Read-outs that look alike come from different tables or passages of the source. Where a SMILES comes first, the peptide text is derived from it. [ ]: non-standard residue; d: D form. The star is where a group is joined. Sta = CC(C)C[C@H](N)[C@@H](O)CC(=O)O; Isovaleryl = CC(C)CC(=O)*
Legend:
[1] = system: protease(s) found in the Photorhabdus broth; type: biochemical, Photorhabdus luminescens; settings: for Corrected Flu. Units (Fluorescence Units - background) / Percent Inhibition relative to protease activity at pH 8.0: pH 8
Method: Protease Inhibition and Classification Assays: Protease assays were performed using FITC-casein dissolved in water as substrate (0.08% final assay concentration). Proteolysis reactions were performed at 25° C. for 1 h in the appropriate buffer with 25 μl of Photorhabdus broth (150 μl total reaction volume). Samples were also assayed in the presence and absence of dithiothreitol. After incubation, an equal volume of 12% trichloroacetic acid was added to precipitate undigested protein. Following precipitation for 0.5 h and subsequent centrifugation, 100 μl of the supernatant was placed into a 96-well microtiter plate and the pH of the solution was adjusted by addition of an equal volume of 4N NaOH. Proteolysis was then quantitated using a Fluoroskan II fluorometric plate reader at excitation and emission wavelengths of 485 and 538 nm, respectively. Protease activity was tested over a range from pH 5.0-10.0 in 0.5 units increments. The following buffers were used at 50 mM final concentration: sodium acetate (pH 5.0-6.5); Tris-HCL (pH 7.0-8.0); and bis-Tris propane (pH 8.5-10.0). […] The protease inhibitors used included E-64 (L-trans-expoxysaccinylleucylamido[4-,-guanidino]-butane), 3,4 dichloroisocoumarin, Leupeptin, pepstatin, amastatin, ethylenediaminetetraacetic acid (EDTA) and 1,10 phenanthroline.

[2] = system: neonate Diabrotica undecimpunctata howardi (Southern corn rootworm, SCR); assay: SCR bioassay on artificial diet (Example 13; used in Examples 14-16); type: in vivo
[3] = system: 41/38 kDa protease; assay: Inhibition of purified 41/38 kDa protease; type: biochemical, Photorhabdus luminescens
Method: (§1) Activity assays of the different proteases in W-14 day three culture broth were performed using FITC-casein dissolved in water as substrate (0.02% final assay concentration). Proteolysis experiments were performed at 37° C. for 0-0.5 h in 0.1M Tris-HCl (pH 8.0) with different protein fractions in a total volume of 0.15 ml. Reactions were terminated by addition of an equal volume of 12% trichloroacetic acid (TCA) dissolved in water. After incubation at room temperature for 0.25 h, samples were centrifuged at […] for 0.25 h and 0.10 ml aliquots were removed and placed into 96-well microtiter plates. The solution was then neutralized by the addition of an equal volume of 2 N sodium hydroxide, followed by quantitation using a Fluoroskan II fluorometric plate reader with excitation and emission wavelengths of 485 and 538 nm, respectively. Activity measurements were performed using FITC-Casein with different protease concentrations at 37° C. for 0-10 min. A unit of activity was arbitrarily defined as the amount of enzyme needed to produce 1000 fluorescent units/min and specific activity was defined as units/mg of protease.
(§2) Inhibition studies were performed using two zinc-metalloprotease inhibitors; 1,10 phenanthroline and N-(a-rhamnopyranosyloxyhydroxyphosphinyl)-Leu-Trp(phosphoramidon) with stock solutions of the inhibitors dissolved in 100% ethanol and water, respectively. […]

[4] = system: 58 kDa protease; assay: Inhibition of purified 58 kDa protease; type: biochemical, Photorhabdus luminescens
Method: as §1, §2

[5] = system: protease activity of three day W-14 crude broth; assay: FITC-casein protease assay, three day W-14 crude broth; type: biochemical, Photorhabdus luminescens; settings: inhibitor 0.5-1.0 mg/ml per reaction
Method: as §1, §2

[6] = inhibitor 0.5 μg/μl final concentration, Day 1 production broth

CC(C)C[C@@H](N)[C@H](O)C(=O)N[C@H](C(=O)N[C@H](C(=O)N[C@@H](CC(=O)O)C(=O)O)C(C)C)C(C)C [Amastatin, amastatin]
Corrected Flu. Units (Fluorescence Units - background) [1, 6]: 12474 Fluorescence Units
Percent Inhibition relative to protease activity at pH 8.0 [1, 6]: 4%

TcbA: peptide TcbA, SEQ ID NO:12; in Table 24 bioassay lines the TcbA-enriched toxin B complex fraction of W-14 broth
SCR Weight (mg/insect), average weight of live insect after 5 days on diet ([2]; 38 kDa protease treatment): 0.1 mg/insect
LD50 (μg protein) ([2]; 38 kDa protease treatment, 37° C., 90 min): 0.52 μg protein
LD50 (μg protein) ([2]; Control (protease omitted)): 2.1 μg protein
SCR Weight (mg/insect), average weight of live insect after 5 days on diet ([2]; Control (protease omitted)): 0.2 mg/insect
fold increase of SCR insecticidal activity by 38 kDa protease treatment ([2]; comparison of activity in several dilutions): 3 to 4 fold

CC(C)C[C@H](NC(=O)[C@H]1O[C@@H]1C(=O)O)C(=O)NCCCCN=C(N)N (relative stereo) [Strain E-64, L-trans-expoxysaccinylleucylamido[4-,-guanidino]-butane]
Corrected Flu. Units (Fluorescence Units - background) [1]: 14259 Fluorescence Units
Percent Inhibition relative to protease activity at pH 8.0 [1]: 0%

O=c1oc(Cl)c(Cl)c2ccccc12 [3,4 Dichloroisocoumarin, 3,4 dichloroisocoumarin]
Corrected Flu. Units (Fluorescence Units - background) [1, 6]: 7956 Fluorescence Units
Percent Inhibition relative to protease activity at pH 8.0 [1, 6]: 39%

CC(C)C[C@H](NP(=O)(O)O[C@@H]1O[C@@H](C)[C@H](O)[C@@H](O)[C@H]1O)C(=O)N[C@@H](Cc1c[nH]c2ccccc12)C(=O)O [phosphoramidon, N-(a-rhamnopyranosyloxyhydroxyphosphinyl)-Leu-Trp]
inhibition of purified 41/38 kDa protease [3]: inhibited
inhibition of purified 58 kDa protease [4]: insensitive
reduction of protease activity of three day W-14 crude broth ([5]; not further reduced with additional inhibitor): about 56%

CC(=O)N[C@@H](CC(C)C)C(=O)N[C@@H](CC(C)C)C(=O)N[C@H](C=O)CCCNC(=N)N [Leupeptin]
Corrected Flu. Units (Fluorescence Units - background) [1, 6]: 13074 Fluorescence Units
Percent Inhibition relative to protease activity at pH 8.0 [1, 6]: 0%

O[C@H](CS)[C@H](O)CS (racemic) [DTT, dithiothreitol]
effect on protease activity ([1]; samples assayed in presence and absence of dithiothreitol): did not have any effect

toxin B: 860 kDa complex purified from activity peak B; major peptides TcbAii and TcbAiii (or intact TcbA)
LD50 against SCR after SCR gut content treatment ([2]; 40 μg toxin with 50 μl SCR gut content, 37° C. overnight): about 70 ng
fold increase of SCR activity by SCR gut content treatment ([2]; LD50 treated against untreated): 10 fold
LD50 against SCR ([2]; in vivo): around 700 ng
activity against Southern corn root worm ([2]; in vivo): active
toxin activity after protease K treatment ([2]; separate experiment): completely eliminated toxin activity

c1cnc2c(c1)ccc1cccnc12 [1,10 Phenanthroline, 1,10 phenanthroline]
inhibition of purified 41/38 kDa protease [3]: completely inhibited
inhibition of purified 58 kDa protease [4]: completely inhibited
inhibition of all protease activity of crude broth ([1]; final concentration of 50 μg): complete inhibition
IC50 ([1]; in 100 μl of a 2 mg/ml crude broth solution): 5 µg
Corrected Flu. Units (Fluorescence Units - background) [1, 6]: 15 Fluorescence Units
Percent Inhibition relative to protease activity at pH 8.0 [1, 6]: 99%
effect on protease activity of three day W-14 crude broth [5]: complete elimination of all protease activity

toxin A: 860 kDa complex purified from activity peak A; major peptides TcdAii and TcdAiii
activity against Southern corn root worm ([2]; in vivo): active

CC(C)CC(=O)N[C@H](C(=O)N[C@H](C(=O)N[C@@H](CC(C)C)[C@@H](O)CC(=O)N[C@@H](C)C(=O)N[C@@H](CC(C)C)[C@@H](O)CC(=O)O)C(C)C)C(C)C [Pepstatin, pepstatin] (Isovaleryl-VV[Sta]A[Sta]-OH)
Corrected Flu. Units (Fluorescence Units - background) [1, 6]: 13441 Fluorescence Units
Percent Inhibition relative to protease activity at pH 8.0 [1, 6]: 0%

Source: patent US6528484B1, “Insecticidal protein toxins from Photorhabdus” (priority 1993, dated 2003)
